Where a SMILES comes first, the peptide text is derived from it.

The source of these data is paper PMC12386934, “Characteristics and Potential of KSL, KSL-W, and Dadapin-1 Antimicrobial Peptides for Preventing Infections of Orthopedic Prosthetic Devices: Identifying the Most Robust Candidate” (International Journal of Molecular Sciences, 2025).

The test system of this data set is MG63 cells co-cultured with S. aureus ATCC 25923. The data set is described as follows: Suppression of S. aureus cytotoxicity in co-culture, LDH assay. The class given is cell-based, human. Conditions: MG63 co-cultured with S. aureus ATCC 25923, 24 h, lowest concentration tested. How it is done: KSL-W was the peptide selected to investigate the efficacy in suppressing the cytotoxicity of S. aureus ATCC 25923 on osteoblast-like MG63 cells. S. aureus ATCC 25923 was thawed from the frozen stock and plated on MHA and incubated at 37 °C for 24 h.
A suspension of MG63 cells was prepared in complete DMEM at a concentration of 5 × 10^4 cells/mL. A total of 100 µL of cell suspension was added to each well of a 96-well cell culture-treated plate (137101, Nunclon Delta Black Microwell, ThermoScientific, Thermo Fisher Scientific, Segrate, Italy). After cell seeding, the plate was incubated for a day at 37 °C under standard culture conditions. […]
Cytotoxicity was assessed by measuring the release of lactate dehydrogenase (LDH) from damaged cells by the LDH Cytotoxicity Assay (ab197004, Abcam, Cambridge, UK), strictly following the instructions of the manufacturer. […] After 10 min shaking, the plate was read in fluorescence (excitation: 535 nm; emission 587 nm) by an Infinite 200 PRO mod. M PLEX multifunction plate reader (Tecan Group Ltd., Männedorf, Switzerland). […]
Data in relative fluorescence units (RFU) from the investigation on KSL-W suppression of S. aureus cytotoxicity were processed as follows. The mean of the duplicate readings from each single treated well was calculated. […]

`CC(C)[C@H](NC(=O)[C@H](Cc1c[nH]c2ccccc12)NC(=O)[C@H](Cc1ccccc1)NC(=O)[C@@H](NC(=O)[C@@H](NC(=O)[C@H](CCCCN)NC(=O)[C@@H](N)CCCCN)C(C)C)C(C)C)C(=O)N[C@@H](CCCCN)C(=O)N[C@@H](Cc1ccccc1)C(=O)N[C@@H](CCCCN)C(=O)O` [KSL-W] (H-KKVVFWVKFK-OH): the “concentration completely suppressing cytotoxicity due to S. aureus” value stood at 75 µg/mL.
